Assay [1] relates to Staphylococcus aureus. Kind of assay: Antibacterial activity against Staphylococcus aureus ATCC6538-P assessed as diameter of inhibition zone at 50 mg/ml incubated for 24 hrs by paper disk diffusion method. It counts as functional. The settings on record: read-out: DIZ. For orientation: Agar diffusion results depend on both activity and mobility in agar.
The subject of assay [2] is Escherichia coli. Kind of assay: Antibacterial activity against Escherichia coli ATCC 25922 assessed as diameter of inhibition zone at 50 mg/ml incubated for 24 hrs by paper disk diffusion method. It counts as functional. To be noted: read-out: DIZ.
The test system of assay [3] is Aspergillus fumigatus. As to the kind of experiment: microbe, parasite or virus in culture. It counts as functional. To be noted: ATCC204305, dose 50 mg/ml, time 24 hrs, read-out: DIZ.
The next assay deals with HepG2. Kind of assay: Anticancer activity against human HepG2 cells assessed as reduction in cell viability. It counts as functional, cell-based.
The test system of the next assay is MCF7. Kind of assay: Anticancer activity against human MCF7 cells assessed as reduction in cell viability. It counts as functional, cell-based.
The target in a further assay is DNA topoisomerase II (Homo sapiens, UniProt P11388+Q02880). Kind of assay: Inhibition of DNA topoisomerase 2 (unknown origin). It counts as protein assay.
For the next assay, the target named is DNA. As to the kind of experiment: Binding affinity to DNA (unknown origin) assessed as DNA intercalation. It counts as nucleic-acid assay.
The subject of a further assay is HCT-116. As to the kind of experiment: cells. The settings on record: Homo sapiens.
The next assay concerns Clostridium tetani. As to the kind of experiment: Antibacterial activity against Clostridium tetani MTCC 449 assessed as bacterial growth inhibition by broth microdilution method. It counts as functional. On the technique in general: In broth dilution the organism is exposed to a series of concentrations in liquid medium.
The next assay deals with Candida albicans. Kind of assay: Antifungal activity against Candida albicans MTCC 3008 assessed as fungal growth inhibition by broth microdilution method. It counts as functional.
In assay [4] the test system is Aspergillus fumigatus. As to the kind of experiment: Antifungal activity against Aspergillus fumigatus MTCC 227 assessed as fungal growth inhibition by broth microdilution method. It counts as functional.
Assay [5] deals with Mycobacterium tuberculosis. As to the kind of experiment: Antitubercular activity against Mycobacterium tuberculosis H37Rv assessed as bacterial growth inhibition at 250 ug/ml. It counts as functional.
Assay [6] relates to Mycobacterium tuberculosis. Kind of assay: Antitubercular activity against Mycobacterium tuberculosis H37Rv assessed as bacterial growth inhibition at 100 ug/ml. It counts as functional.
For a further assay, the system named is Plasmodium falciparum. Kind of assay: microbe, parasite or virus in culture.
For a further assay, the system named is PC-3. As to the kind of experiment: Anticancer activity against human PC-3 cells assessed as reduction in cell viability. It counts as functional, cell-based.
The test system of assay [7] is Escherichia coli. Kind of assay: Antibacterial activity against Escherichia coli MTCC 723 assessed as diameter of inhibition zone at 0.1 mg/ml incubated for 24 hrs by agar well diffusion method. It counts as functional. To be noted: read-out: DIZ.
The test system of assay [8] is Pseudomonas aeruginosa. Kind of assay: Antibacterial activity against Pseudomonas aeruginosa MTCC 741 assessed as diameter of inhibition zone at 0.1 mg/ml incubated for 24 hrs by agar well diffusion method. It counts as functional. The settings on record: read-out: DIZ.
Another assay deals with Klebsiella pneumoniae. Kind of assay: Antibacterial activity against Klebsiella pneumoniae MTCC 109 assessed as diameter of inhibition zone at 0.1 mg/ml incubated for 24 hrs by agar well diffusion method. It counts as functional. The settings on record: read-out: DIZ.
The target of a further assay is Alpha-glucosidase (Saccharomyces cerevisiae S288c, UniProt P53341+P38158+P07265). Kind of assay: Inhibition of Saccharomyces cerevisiae alpha-glucosidase preincubated for 5 mins followed by PNP-GLUC substrate addition and measured after 20 mins by spectroscopic analysis. It counts as protein assay.
A further assay addresses Albumin (Bos taurus, UniProt P02769). Kind of assay: […] bovine serum albumin denaturation incubated for 23 mins by UV-Visible spectrophotometry.
Assay [9] can be described thus: Inhibition of porcine pancreatic alpha-amylase preincubated for 10 mins followed by substrate starch addition and measured after 10 mins by colorimetric analysis. On the set-up: species or system Sus scrofa.
Another assay relates to NUGC. Kind of assay: Anticancer activity against human NUGC cells assessed as cell growth inhibition incubated for 24 hrs. It counts as functional, cell-based.
The next assay deals with DLD-1. As to the kind of experiment: Anticancer activity against human DLD-1 cells assessed as cell growth inhibition incubated for 24 hrs. It counts as functional, cell-based. To be noted: DLD-1, 24 h.
For another assay, the system named is Micrococcus luteus. Kind of assay: Antibacterial activity against Micrococcus luteus MTCC 2470 assessed as bacterial growth inhibition. It counts as functional.
A further assay has as its system Bacillus subtilis. Kind of assay: Antibacterial activity against Bacillus subtilis MTCC 121 assessed as bacterial growth inhibition. It counts as functional.
For assay [10], the system named is Staphylococcus aureus. As to the kind of experiment: Antibacterial activity against Staphylococcus aureus MLS-16 MTCC 2940 assessed as bacterial growth inhibition. It counts as functional.
Assay [11] concerns Escherichia coli. Kind of assay: Antibacterial activity against Escherichia coli MTCC 739 assessed as bacterial growth inhibition. It counts as functional.
A further assay relates to Raoultella planticola. As to the kind of experiment: Antibacterial activity against Raoultella planticola MTCC 530 assessed as bacterial growth inhibition. It counts as functional. The settings on record: Klebsiella planticola.
Assay [12] has as its system Pseudomonas aeruginosa. Kind of assay: Antibacterial activity against Pseudomonas aeruginosa MTCC 2453 assessed as bacterial growth inhibition. It counts as functional.
For assay [13], the system named is Staphylococcus aureus. As to the kind of experiment: Antibacterial activity against Staphylococcus aureus MTCC 87 assessed as diameter of inhibition zone at 0.1 mg/ml incubated for 24 hrs by agar well diffusion method. It counts as functional. To be noted: read-out: DIZ.

pIC50: −log10 of the molar value. In brackets after ≈: the same amount, converted by molar mass. Bounds are passed on as bounds.

Sequence of Albumin (P02769 whole entry): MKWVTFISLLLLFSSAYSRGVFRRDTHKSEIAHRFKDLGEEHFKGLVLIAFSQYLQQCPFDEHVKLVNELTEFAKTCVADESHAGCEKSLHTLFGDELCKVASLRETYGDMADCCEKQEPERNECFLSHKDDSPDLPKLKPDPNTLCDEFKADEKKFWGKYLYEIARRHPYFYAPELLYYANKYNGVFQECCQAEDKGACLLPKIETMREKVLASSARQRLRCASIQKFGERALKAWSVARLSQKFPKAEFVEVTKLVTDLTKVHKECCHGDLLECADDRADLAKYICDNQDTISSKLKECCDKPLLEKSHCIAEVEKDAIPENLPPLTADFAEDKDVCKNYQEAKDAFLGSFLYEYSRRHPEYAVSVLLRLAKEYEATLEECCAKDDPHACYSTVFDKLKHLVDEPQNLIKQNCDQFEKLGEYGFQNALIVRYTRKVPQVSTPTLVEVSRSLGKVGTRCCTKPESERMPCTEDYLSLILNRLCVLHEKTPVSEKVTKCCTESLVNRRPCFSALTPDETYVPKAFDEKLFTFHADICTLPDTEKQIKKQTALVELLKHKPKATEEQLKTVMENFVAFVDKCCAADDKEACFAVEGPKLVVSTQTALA

For the compound `O=c1[nH]cnc2c1C(c1ccc(Cl)cc1)C=C(c1cc3ccccc3oc1=O)O2` (stereo unspecified), the zone of inhibition at 50000 µg/mL in the assay with Staphylococcus aureus [1], with Escherichia coli [2] and in the assay with Aspergillus fumigatus [3] was 10 mm in each case.
In general, pIC50 refers to the IC50 on a negative log10 scale, so that one unit is a factor of ten. As a reminder, the IC50 is the concentration that inhibits the measured activity by half. For the compound `COc1ccc(C2c3c([nH]c(=O)[nH]c3=O)Oc3ncn(C(=S)Nc4ccccc4)c(=N)c32)cc1` (stereo unspecified), the pIC50 with HepG2 was 5.68; with MCF7 it was 5.61; at DNA, 4.57; in the assay on HCT-116, 5.58. In addition, the half-maximal inhibitory concentration (IC50) at DNA topoisomerase II came to 0.791 µM.
Broadly, the MIC is the least concentration at which growth counts as inhibited. A word on the inhibition: it is the change of the read-out against control, counted positive when it falls. In the case of `Cc1nn(-c2ccccc2)c(-n2ccnc2)c1C1C(C#N)=C(N)Oc2[nH]c(=S)[nH]c(=O)c21` (stereo unspecified), the minimum inhibitory concentration (MIC) is 100 µg/mL (≈ 225 µM) in the assay with Clostridium tetani, 500 µg/mL (≈ 1120 µM) in the assay on Candida albicans and 200 µg/mL (≈ 450 µM) in the assay on Aspergillus fumigatus [4]. For the same compound, the inhibition at 250 µg/mL in [5] worked out at 37%. The inhibition at 100 µg/mL in assay [6] is 30%. This compound gave an IC50 with Plasmodium falciparum of 0.97 µg/mL (≈ 2.18 µM).
Turning to `CCOC(=O)C1=C(N)Oc2[nH]c(=O)[nH]c(=O)c2C1c1cccc([N+](=O)[O-])c1` (stereo unspecified), the IC50 in the assay with HepG2 is 0.25 µg/mL; in the assay with PC-3 it was 0.25 µg/mL (≈ 0.668 µM); with HCT-116 it was 0.25 µg/mL.
As to `O=C(C1=C(c2ccccc2O)Oc2[nH]c(=S)[nH]c(=O)c2C1c1ccccc1O)N1CCCCC1` (stereo unspecified), the zone of inhibition at 100 µg/mL in the assay on Escherichia coli [7] came out at 12.2 mm; in the assay with Pseudomonas aeruginosa [8], 10.1 mm; in the assay with Klebsiella pneumoniae it was 11.6 mm. In addition, the half-maximal inhibitory concentration (IC50) at Alpha-glucosidase amounted to 6197 µM. Besides, the pIC50 was 4.58 against Albumin and 4.70 in [9].
On to `N#CC1=C(N)C2C(=NC(n3[nH]c(N)cc3=O)=NC2c2ccc(Cl)cc2)OC1=O` (stereo unspecified), for which the pIC50 was 5.66 in the assay on NUGC and 5.67 in the assay with DLD-1.
For `O=c1oc2ccccc2c2c1C(c1ccccc1)c1c(Nc3ccc([N+](=O)[O-])cc3)ncnc1O2` (stereo unspecified), the MIC in the assay with Micrococcus luteus was 31.2 µg/mL (≈ 67.2 µM); in the assay with Bacillus subtilis, no more than 125 µg/mL; with Staphylococcus aureus [10], no more than 125 µg/mL; in the assay with Escherichia coli [11], 31.2 µg/mL (≈ 67.2 µM); in the assay with Raoultella planticola it was 31.2 µg/mL (≈ 67.2 µM); with Pseudomonas aeruginosa [12], no more than 125 µg/mL.
For the compound `COC1=CC(=O)C[C@@H](C)[C@]12Oc1c(Cl)c(OC)cc(OC)c1C2=O` [GRISEOFULVIN], the minimum inhibitory concentration (MIC) in the assay with Candida albicans worked out at 500 µg/mL (≈ 1420 µM).
In the case of `O=C(C1=C(c2ccccc2O)Oc2[nH]c(=S)[nH]c(=O)c2C1c1ccc(Br)cc1)N1CCCCC1` (stereo unspecified), in the assay with Staphylococcus aureus [13], the zone of inhibition at 100 µg/mL worked out at 9.1 mm. The compound also returned an IC50 on Alpha-glucosidase of 6855 µM. Further, the results for the negative logarithm of the IC50 (pIC50) (at Albumin; in [9]) were 4.64 and 4.61, respectively.

Source of the values: ChEMBL document CHEMBL5241112, “Insights into the recent progress in the medicinal chemistry of pyranopyrimidine analogs” (RSC Med Chem, 2022).
